Reference: patent US20250186319A1, “ANAPLEROTIC COMPOSITIONS AND USES THEREOF” (EXCELLA BIOSCIENTIFIC LTD, priority 2021, published 2025)
≈ marks a conversion by molar mass, not a printed value. Where two headings read alike, the source gives them in different places.

Key:
phospholipase A2 = test: Specificity: hydrolysis of TriAza by phospholipase A2; type: biochemical; settings: equally active enzyme amounts, fixed TriAza concentration
From the text: (§1) Pure pro-drug activity of designed molecules implies their high specificity towards the target enzyme. TriAza represents the glycerol ester of a specific fatty acid that might be recognized by a mammalian esterase or other triglyceride-utilizing lipase. To establish specificity of bacterial lipase to TriAza, the lipase activity from P. cepacia to that of mammalian esterase and phospholipase A2 were compared. […] The extents of enzyme activities were registered according to the level of generation of azelaic acid.

mammalian esterase = test: Specificity: hydrolysis of TriAza by esterase; type: biochemical; settings: equally active enzyme amounts, fixed TriAza concentration
From the text: as §1

P. acnes = test: MIC/MBC against P. acnes by microdilution method; type: cell-based; settings: for MIC: Cutibacterium acnes; for MBC: TriAza batches and their soaps
From the text: TriAza was designed as a pro-drug of azelaic acid, a known antibacterial agent, for the treatment of skin disorders associated with pathogenic propagation of bacteria. For example, the development of Acne vulgaris is tightly associated with extensive accumulation of P. acnes in the sebaceous gland, a milieu of the disease. To determine the antibacterial activity of TriAza against P. acnes, we tested the minimal bactericidal concentration (MBC) of TriAza. The effect of TriAza was compared to the MBC of azelaic acid and benzoyl peroxide (BPO), two main competitors used in the treatment of acne.
To compare the antimicrobial activities of various batches of TriAza we determined MIC of number of batches that were prepared with non-principal modifications. Selected batches were labeled as TriAza −3, TriAza −6, TriAza −7 and TriAza −19 and supplied to the growth medium of P. acnes. A, minimal inhibitory concentration of the batches was monitored and compared to each other. […] For further analysis, batch TriAza −19 was chosen as a batch containing the minimal amount of pelargonic acid.
Since TriAza is designed for marketing as a soap, we decided to define an antibacterial activity of its soap. […] It should be stressed that despite the decreased activity of TriAza soap it is still higher than that of azelaic acid (Table 1 and 2).
Example 12: Microbiome balance effect: Selection of methods for QC-quality control-Functional Potency. Testing minimal inhibitory concentration (MIC) to P. acnes was executed by microdilution method. TriAza based biocontrol, microbial preservation. P. acnes after double passage on Chocolate plates (Novamed) were grown bacteria in anaerobic conditions at 37° C. for 1-2 days. The bacteria were Gram stained and the proper morphology of the bacteria was assured. Then, bacteria were resuspended in Thioglycolate medium (HyLabs) at concentration of 0.02 O.D.600. Meanwhile, ELISA plates containing at the first raw 200 μl of undiluted tested material were prepared. The rest wells were filled with 100 μl of Thioglycolate medium and 11 serial […] by transferring 100 μl of undiluted material was performed. Once the ELISA plate was ready, 100 μl of prepared bacterial culture was added. Bacteria alone and medium w/o bacteria were used as standard controls. The plates were incubated in anaerobic conditions at 37° C. for 2 days. Minimal inhibitory concentration was determined visually and spectrophotometrically, while minimal bactericidal concentration was determined after plating of the bacteria on solid medium (Chocolate plates). On the plates bacteria were incubated in anaerobic conditions at 37° C. for 2 days and the number of appearing colonies were counted manually. Specification for positive functional potency for batch acceptance for the TriAza batches tested are selected in range of antimicrobial activity-MIC between 0,25-1 mM.
P. acnes after double passage on Chocolate plates (Novamed) were grown in anaerobic conditions at 37° C. for 1-2 days. The bacteria were Gram stained and the proper morphology of the bacteria was assured. Then, bacteria were resuspend in Thioglycolate medium
(HyLabs) at concentration of 0.02 O.D.600. Meanwhile, ELISA plates containing at the first raw undiluted tested material were prepared. The rest wells were filled with 100 μl of Thioglycolate medium and 11 serial ½ dilutions by transferring 100 ul of undiluted material was performed. Once the ELISA plate was ready, 100 ul of prepared bacterial culture was added. Bacteria alone and medium w/o bacteria were used as standard controls. The plates were incubated in anaerobic conditions at 37° C. for 2 days. Minimal inhibitory concentration was determined visually and spectrophotometrically, while minimal bactericidal concentration was determined after plating of the bacteria on solid medium (Chocolate plates). […]

[1] = Subjective evaluation of skin aged appearance in volunteers; type: in vivo, human; settings: scale −3 to 3; three volunteers; after month of use
Procedure: Method of subjective qualitative evaluation of skin whitening and smoothening at the test site and improvement in fine lines is evaluated subjectively by the investigator and/or by the subjects in accordance with the following scoring pattern:−3=marked deterioration;−2=moderate, visibly uneven deterioration;−1=slight deterioration; 0=no perceptible change or improvement; 1=slight change or improvement; 2=moderate change or improvement (whitening; perceptible and visible change, with less than 50% lightening of skin color); 3=marked or improvement remarkable change or improvement (whitening; very visible change with even and uniform skin whitening covering more than 80% of the contact area). Three study volunteers used TriAza for reduction of skin “aged appearance”-all three after month of use reported 2-3 scale of appearance improvement.

lipase from P. cepacia = molecular target: T1, lipase from P. cepacia (Burkholderia cepacia, UniProt P22088); test: Bacterial lipase hydrolysis of TriAza, azelaic acid production by TLC; type: biochemical; settings: increasing enzyme amounts, 37° C.
T1 construct: purchased
Procedure: To determine the affinity of a bacterial lipase to the active ingredient according to the embodiments of the invention, the ability of the lipase to utilize TriAza as a substrate was tested. For this purpose, the commercially available lipase from P. cepacian was used. Increasing amounts of the enzyme were mixed with a fixed concentration of the substrate, and incubated for a few hours at 37° C. The enzymatic activity was monitored by TLC, by registering the production of azelaic acid.
as §1

[2] = test system: P. acnes-associated lipase; test: P. acnes-associated lipase activity in live culture, release of azelaic acid (TLC); type: cell-based; settings: day 1 and day 5
Procedure: The activity of C. acnes-associated and P. acnes-associated lipase was tested in the presence of triolein (a trigger of lipase activity). Bacteria was grown for 4 days in liquid medium. P. acnes after double passage on Chocolate plates (Novamed) were grown bacteria in anaerobic conditions at 37° C. for 1-2 days. The bacteria were Gram stained, and the proper morphology of the bacteria was assured. Then, 1 O.D. 600 bacteria were resuspended in 1 ml of Thioglycolate medium (HyLabs) containing 50 μl triolein and grown in anaerobic conditions at 37° C. for 4 days. Following this incubation, 100 μl of emulsified substrate was added to the culture that was further maintained at 37° C. for overnight. Afterwards, the supernatant was separated from the bacteria by 1 min centrifugation at 10000 rpm and subjected to lipid extraction using clorophorm: methanol (2:1). The lipids after nitrogen evaporation and resuspension in clorophorm: methanol (2:1) were separated on silica TLC plates in a development solution of clorophorm: methanol: water (65:25:4), and visualized with BromCresol Green (Sigma).

[3] = test system: Staphylococcus aureus (S. aureus); test: MIC/MBC against S. aureus; type: cell-based
From the text: (§2) For this purpose, we selected a few major skin pathogens and tested their sensitivity to TriAza. We chose Staphylococcus aureus (S. aureus) and Candida albicans (C. albicans), representing bacterial and fungal genera, respectively. Both organisms' express lipase. The bacteria and fungi were exposed to various concentrations of TriAza −19 and its sodium salt, and both the MICs and MBCs of the agents were statistically determined. […] The slight difference in MICs of TriAza against the tested organisms can stem from the difference in their lipase activity.

[4] = test system: Candida albicans (C. albicans); test: MIC/MBC against C. albicans; type: cell-based
From the text: as §2

S. aureus = S. aureus spiked contamination screen of natural preservatives in chocolate spread; type: cell-based; parameters: unit not given here
From the text: In addition, even MCT, and derivatives are screened as useful natural preservatives of the composition, GML-glycerol monolaurate is selected as an adjunctive multifunctional natural preservative to MOCL based composition.

[5] = TriAza value is batch #5, MIC of L-PABS equals its MBC, read-out: MIC

T1 sequence (P22088 45-364): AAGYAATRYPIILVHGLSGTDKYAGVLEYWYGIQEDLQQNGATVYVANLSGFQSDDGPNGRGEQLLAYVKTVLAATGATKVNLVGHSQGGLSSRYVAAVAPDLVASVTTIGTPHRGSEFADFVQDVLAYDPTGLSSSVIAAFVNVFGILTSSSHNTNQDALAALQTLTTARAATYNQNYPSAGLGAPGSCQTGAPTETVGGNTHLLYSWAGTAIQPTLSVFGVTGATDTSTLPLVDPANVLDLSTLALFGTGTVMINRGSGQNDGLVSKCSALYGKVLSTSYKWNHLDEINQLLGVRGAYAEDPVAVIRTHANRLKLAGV

In the case of O=C(O)CCCCCCCC(=O)OCC(COC(=O)CCCCCCCC(=O)O)OC(=O)CCCCCCCC(=O)O [TriAza, Glycerol triazelate], the “generation of azelaic acid by phospholipase A2” value (phospholipase A2) is reported as “neither esterase nor phospholipase A2 could produce azelaic acid”, the “generation of azelaic acid by esterase” value (mammalian esterase) is reported as “neither esterase nor phospholipase A2 could produce azelaic acid” and the MIC (P. acnes; [5]) is reported as 1950 µg/mL. For the same compound, the MIC (P. acnes; batch VA4-1, with surfactant or emulsifier, read-out: MIC bacteriostatic activity, concentration sufficient to stop growth) was 1000 µM, the “activity of TriAza relative to Azelaic acid” value (P. acnes; stronger than Azelaic acid) was 2 fold and the appearance improvement score [1] was 2-3. For the same compound, the “utilization as substrate, accumulation of azelaic acid” value (lipase from P. cepacia) was “could be utilized as a substrate for bacterial lipase activity” and the “time-dependent release of azelaic acid” value [2] was “maximum lipase hydrolysis on day 5”.
With O=C(O)CCCCCCCC(=O)O [Azelaic acid, reference compound] the MIC (P. acnes; [5]) was 3750 µg/mL.
With O=C(O)CCCCCCCC(=O)OCC(COC(=O)CCCCCCCC(=O)O)OC(=O)CCCCCCCC(=O)O [TriAza-6] the MBC (P. acnes) was 2800 µg/mL (≈ 4.65 mM).
O=C(O)CCCCCCCC(=O)OCC(COC(=O)CCCCCCCC(=O)O)OC(=O)CCCCCCCC(=O)O [TriAza-7] showed an MBC (P. acnes) of 2000 µg/mL (≈ 3.32 mM).
O=C(OOC(=O)c1ccccc1)c1ccccc1 [BPO, benzoyl peroxide, reference compound] showed an MIC (P. acnes; [5]) of 500 µg/mL.
In the case of O=C(O)CCCCCCCC(=O)OCC(COC(=O)CCCCCCCC(=O)O)OC(=O)CCCCCCCC(=O)O [TriAza-19], the MBC [3] is reported as 10000 µg/mL (≈ 16.6 mM), the MIC [3] is reported as 5000 µg/mL (≈ 8.3 mM) and the MBC [4] is reported as 24000 µg/mL (≈ 39.8 mM). It also gave an MIC [4] of 20000 µg/mL (≈ 33.2 mM) and an MBC (P. acnes) of 1000 µg/mL (≈ 1.66 mM).
Work on CCCCCCCCC(=O)OCC(COC(=O)CCCCCCCC)OC(=O)CCCCCCCC [tripelargonin] yielded an MIC (S. aureus) of 23.
Compound O=C(O)CCCCCCCC(=O)OCC(COC(=O)CCCCCCCC(=O)O)OC(=O)CCCCCCCC(=O)O [TriAza-3] has an MBC (P. acnes) of 1000 µg/mL (≈ 1.66 mM).
